Experimental findings from US8426420B2, “Heterocyclic pyrazole-carboxamidesas P2Y12 antagonists” (Sanofi, priority 2007, dated 2013) are described below.

SMILES strings stand for the structures.

In the test the target is human P2Y12 receptor (Homo sapiens, UniProt Q9H244). As to the kind of experiment: Human P2Y12 recombinant cell membrane binding assay with 33P 2MeS-ADP. The conditions noted are these: competition against 33P 2MeS-ADP, membranes of CHO cells with recombinant human P2Y12 receptor. On the procedure: The ability of the compounds of the formula Ito inhibit the P2Y12 receptor can be assessed by determining the concentration of the compound of the formula I that binds to the human P2Y12 Recombinant Cell Membrane Binding Assay with 33P 2MeS-ADP.
Chain of human P2Y12 receptor (Q9H244 whole entry): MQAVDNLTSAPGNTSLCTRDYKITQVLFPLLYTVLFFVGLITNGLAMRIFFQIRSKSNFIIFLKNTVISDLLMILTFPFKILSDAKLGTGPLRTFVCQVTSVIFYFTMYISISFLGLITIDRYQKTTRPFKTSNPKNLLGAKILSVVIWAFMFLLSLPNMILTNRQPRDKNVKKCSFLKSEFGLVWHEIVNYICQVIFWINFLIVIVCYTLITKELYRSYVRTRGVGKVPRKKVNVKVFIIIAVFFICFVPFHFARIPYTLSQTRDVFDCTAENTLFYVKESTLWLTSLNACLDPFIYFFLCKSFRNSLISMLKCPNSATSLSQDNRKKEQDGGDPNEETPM
Human P2Y12 Recombinant Cell Membrane Binding Assay
The ability of a test compound to bind to the P2Y12 receptor was evaluated in a recombinant cell membrane binding assay. In this competitive binding assay, the test compound competed against a radiolabeled agonist for binding to the P2Y12 receptor, expressed on the cell membrane. Inhibition of binding of the labeled material was measured and correlated to the amount and potency of the test compound. This binding assay is a modification of the procedure described by Takasaki, J. et. al, Mol. Pharmacol., 2001, Vol. 60, pg. 432. A membrane preparation was prepared from Chinese Hamster Ovary (CHO) cells with recombinant expression of the human P2Y12 receptor according to standard procedures as a source of P2Y12.
To a 96-well microtiterplate the following were added: a) 24 μl of assay buffer (10 mM HEPES, 138 mM NaCl, […] KCl, 12 mM NaHCO3, 1 mM EDTA-Na, 0.1% BSA, pH 7.4) b) 1 μL compound in DMSO c) 50 μL P2Y12 CHO membrane (20 μg/ml) and after 15 min at RT d) 25 μL of 1.61 nM 33P 2MeS-ADP (Perkin Elmer NEN custom synthesis, specific activity ˜2100 Ci/mmol) made in assay buffer.
After 20 min incubation at RT samples were transferred to 96-well microtiter filterplates (Millipore HTS GF/B), pre-wetted for 20 min with 300 μL of stop buffer (10 mM HEPES, 138 mM NaCl pH 7.4) and then filtered through completely with a Millipore plate vacuum. Next, wells were washed four times with 400 μl/well of stop buffer on a plate vacuum. The plate was disassembled and allowed to air dry overnight with the filter side up over night. The filter plates were snapped into adapter plates and 0.1 mL of Microscint 20 Scintillation Fluid (Perkin Elmer #6013621) was added to each well. The top of the filterplate was sealed with plastic plate covers. The sealed filterplate were incubated 2 hours at RT. A Microbeta Scintillation Counter was used to measure counts.
Compounds were diluted as 10 mM DMSO stocks and tested in a four-point, five-fold dilution series run in triplicate beginning at 10 μM, final concentration. Data were analyzed using a four-parameter curve fit with a fixed minimum and maximum experimentally defined as the average positive and negative controls on each plate.

What is called IC50 is the concentration that gives 50% inhibition. Regarding `CCCCOC(=O)NC1CCN(C(=O)[C@H](CCC(=O)O)NC(=O)c2cc(OCC(=O)N3CCC[C@H]3C(=O)NC3CCC3)n(-c3ccccc3)n2)CC1` [Example 102, (S)-5-(4-Butoxycarbonylamino-piperidin-1-yl)-4-({5-[2-((S)-2-cyclobutylcarbamoyl-pyrrolidin-1-yl)-2-oxo-ethoxy]-1-phenyl-1H-pyrazole-3-carbonyl}-amino)-5-oxo-pentanoic acid], the IC50 amounted to 58 nM. On to `CCOC(=O)N1CCN(C(=O)[C@H](CCC(=O)OC2CCCCC2)NC(=O)c2cc(OCC(=O)N3CCC[C@H]3C(=O)NC3CCC3)n(-c3ccccc3)n2)CC1` [Example 129, 4-[(S)-2-({5-[2-((S)-2-Cyclobutylcarbamoyl-pyrrolidin-1-yl)-2-oxo-ethoxy]-1-phenyl-1H-pyrazole-3-carbonyl}-amino)-4-cyclohexyloxycarbonyl-butyryl]-piperazine-1-carboxylic acid ethyl ester], for which the IC50 was found to be 83 nM. Under `CCOC(=O)N1CCN(C(=O)[C@H](CCC(=O)OC2CCCC2)NC(=O)c2cc(OCC(=O)N3CCC[C@H]3C(=O)NC3CCC3)n(-c3ccccc3)n2)CC1` [Example 130, 4-[(S)-2-({5-[2-((S)-2-Cyclobutylcarbamoyl-pyrrolidin-1-yl)-2-oxo-ethoxy]-1-phenyl-1H-pyrazole-3-carbonyl}-amino)-4-cyclopentyloxycarbonyl-butyryl]-piperazine-1-carboxylic acid ethyl ester] stands 59 nM; under `CCOC(=O)N1CCN(C(=O)[C@H](CCC(=O)OCc2ccccc2)NC(=O)c2cc(OCC(=O)N3CCC[C@H]3C(=O)NC3CCC3)n(-c3ccccc3)n2)CC1` [Example 132, 4-[(S)-2-({5-[2-((S)-2-Cyclobutylcarbamoyl-pyrrolidin-1-yl)-2-oxo-ethoxy]-1-phenyl-1H-pyrazole-3-carbonyl}-amino)-4-benzyloxycarbonyl-butyryl]-piperazine-1-carboxylic acid ethyl ester], 25 nM. As to `CCCOC(=O)CC[C@H](NC(=O)c1cc(OCC(=O)N2CCC[C@H]2C(=O)NC2CCC2)n(-c2ccccc2)n1)C(=O)N1CCN(C(=O)OCC)CC1` [Example 133, 4-[(S)-2-({5-[2-((S)-2-Cyclobutylcarbamoyl-pyrrolidin-1-yl)-2-oxo-ethoxy]-1-phenyl-1H-pyrazole-3-carbonyl}-amino)-4-propoxycarbonyl-butyryl]-piperazine-1-carboxylic acid ethyl ester], the IC50 was determined as 42 nM. With `CCCCOC(=O)CC[C@H](NC(=O)c1cc(OCC(=O)N2CCC[C@H]2C(=O)NC2CCC2)n(-c2ccccc2)n1)C(=O)N1CCN(C(=O)OCC)CC1` [Example 134, 4-[(S)-2-({5-[2-((S)-2-Cyclobutylcarbamoyl-pyrrolidin-1-yl)-2-oxo-ethoxy]-1-phenyl-1H-pyrazole-3-carbonyl}-amino)-4-butoxycarbonyl-butyryl]-piperazine-1-carboxylic acid ethyl ester], the IC50 is 42 nM. Turning to `CCOC(=O)N1CCN(C(=O)[C@H](CCC(=O)OC(C)C)NC(=O)c2cc(OCC(=O)N3CCC[C@H]3C(=O)NC3CCC3)n(-c3ccccc3)n2)CC1` [Example 137, 4-[(S)-2-({5-[2-((S)-2-Cyclobutylcarbamoyl-pyrrolidin-1-yl)-2-oxo-ethoxy]-1-phenyl-1H-pyrazole-3-carbonyl}-amino)-4-isopropoxycarbonyl-butyryl]-piperazine-1-carboxylic acid ethyl ester], the IC50 amounted to 148 nM. `CCOC(=O)CC[C@H](NC(=O)c1cc(OCC(=O)N2CCC[C@H]2C(=O)NC2CCC2)n(-c2cccc(F)c2)n1)C(=O)N1CCN(C(=O)OCC)CC1` [Example 140, 4-((S)-2-{[5-[2-((S)-2-Cyclobutylcarbamoyl-pyrrolidin-1-yl)-2-oxo-ethoxy]-1-(3-fluoro-phenyl)-1H-pyrazole-3-carbonyl]-amino}-4-ethoxyoxycarbonyl-butyryl)-piperazine-1-carboxylic acid ethyl ester]: the IC50 was found to be 173 nM.
